Counter-ions that a name gives are not always drawn.
The compounds below were run on Neisseria gonorrhoeae (assay: EC50 determination: plate-based broth growth assay (absorbance at 600 nm) of Neisseria gonorrhoeae). Conditions: absorbance 600 nm after 20 hours at 37° C./5% CO2, read-out: IC50 (Inhibitory concentration) against Neisseria gonorrhoeae.
Type: cell-based
Description: Actively growing Neisseria gonorrhoeae on GC agar (based on; Spence et. al. (2008): Curr. Protoc. Microbiol. 8:4A.1.1-4A.1.26) plates are harvested and transferred to GC broth (based on; Spence et al (2008): Curr. Protoc. Microbiol. 8:4A.1.1-4A.1.26) to generate a liquid stock. This culture is allowed to establish and grow to mid-log phase (at 37° C./5% CO2), finally this culture is diluted (˜10^5 cells/ml) to generate a seed inoculum to establish plate-based broth assays. EC50 values were determined by assaying growth (absorbance read at 600 nm, after 20 hours at 37° C./5% CO2) of Neisseria gonorrhoeae across a 10-point dilution series of the test compound. The EC50 value is determined from transformed data to identify the concentration of compound giving a 50% response relative to control samples (no compound).

Q: For `FC(F)(F)c1ccc2oc(Nc3nnc(CN4CCNCC4)o3)nc2c1` [Example 147, N-(5-(Piperazin-1-ylmethyl)-1,3,4-oxadiazol-2-yl)-5-(trifluoromethyl)benzo[d]oxazol-2-amine hydrochloride], which IC50 is on record?
A: ≤ 100000 nM

Q: How did the IC50 turn out when `Cc1nccc2oc(Nc3nc4ccccc4o3)nc12` [Example 171, N-(Benzo[d]oxazol-2-yl)-4-methyloxazolo[4,5-c]pyridin-2-amine] was run?
A: ≤ 1000 nM

Q: How did the IC50 turn out when `Cc1nnc(Nc2nc3cnccc3o2)o1` [Example 58, N-(5-Methyl-1,3,4-oxadiazol-2-yl)oxazolo[4,5-c]pyridin-2-amine] was run?
A: ≤ 10000 nM

Q: `Cc1nc(Nc2nc3cc(C(F)(F)F)ccc3o2)oc1C` [Example 113, N-(4,5-Dimethyloxazol-2-yl)-5-(trifluoromethyl)benzo[d]oxazol-2-amine] was tested. Which IC50 did it give?
A: ≤ 1000 nM

Q: `CCOC(=O)c1nnc(Nc2nc3cc(C(F)(F)F)ccc3[nH]2)o1` [Example 56, Ethyl 5-((5-(trifluoromethyl)-1H-benzo[d]imidazol-2-yl)amino)-1,3,4-oxadiazole-2-carboxylate] was tested. Which IC50 did it give?
A: ≤ 1000 nM

Q: With `FC(F)(F)c1ccc2oc(Nc3nccs3)nc2c1` [Example 6, N-(Thiazol-2-yl)-5-(trifluoromethyl)benzo[d]oxazol-2-amine] as the compound, how does the IC50 read?
A: ≤ 1000 nM

Q: `COc1cc2oc(Nc3nnco3)nc2cc1Cl` [Example 190, 5-Chloro-6-methoxy-N-(1,3,4-oxadiazol-2-yl)benzo[d]ox-azol-2-amine] was tested. Which IC50 did it give?
A: ≤ 100 nM

Q: For `O=C(O)c1nnc(Nc2nc3ccc(F)cc3o2)o1` [Example 223, Sodium 5-((6-fluorobenzo[d]oxazol-2-yl)amino)-1,3,4-oxadiazole-2-carboxylate], which IC50 is on record?
A: ≤ 100000 nM

Q: `O=C1CCCN1c1ccc2nc(Nc3nnco3)oc2c1` [Example 212, 1-(2-((1,3,4-oxadiazol-2-yl)amino)benz-o[d]oxazol-6-yl)pyrrolidin-2-one] was tested. Which IC50 did it give?
A: ≤ 100000 nM

Q: For `FC(F)(F)c1cc2oc(Nc3nnc(C4CC4)o3)nc2cn1` [Example 51, N-(5-Cyclopropyl-1,3,4-oxadiazol-2-yl)-6-(trifluoromethyl)oxazolo[4,5-c]pyridin-2-amine], which IC50 is on record?
A: ≤ 1000 nM

Q: How did the IC50 turn out when `Clc1ccc2nc(Nc3nnc(CN4CCCC4)[nH]3)oc2c1` [Example 132, 6-Chloro-N-(5-(pyrrolidin-1-ylmethyl)-4H-1,2,4-triazol-3-yl)benzo[d]oxazol-2-amine] was run?
A: ≤ 1000 nM

Q: With `FC(F)(F)c1ccc2oc(Nc3nnc(CN4CCCCC4)o3)nc2c1` [Example 72, N-(5-(Piperidin-1-ylmethyl)-1,3,4-oxadiazol-2-yl)-5-(trifluoromethyl)benzo[d]oxazol-2-amine] as the compound, how does the IC50 read?
A: ≤ 1000 nM

Q: With `Clc1ccc2[nH]c(Nc3nc4cnccc4o3)nc2c1` [Example 168, N-(5-Chloro-1H-benzo[d]imidazol-2-yl)oxazolo [4,5-c]pyridin-2-amine] as the compound, how does the IC50 read?
A: ≤ 1000 nM

Q: With `Fc1ccc2oc(Nc3nc4cnccc4o3)nc2c1` [Example 160, N-(5-Fluorobenzo[d]oxazol-2-yl)oxazolo[4,5-c]pyridin-2-amine] as the compound, how does the IC50 read?
A: ≤ 100000 nM

Q: How did the IC50 turn out when `Cc1sc(Nc2nc3cc(C(F)(F)F)ccc3o2)nc1C(=O)NC1CC1` [Example 25, N-Cyclopropyl-5-methyl-2-((5-(trifluoromethyl)benzo[d]oxazol-2-yl)amino)thiazole-4-carboxamide] was run?
A: ≤ 1000 nM

Q: With `COc1cc2nc(Nc3nnco3)oc2cc1Cl` [Example 204, 6-chloro-5-methoxy-N-(1,3,4-oxadiazol-2-yl)benzo[d]oxa-zol-2-amine] as the compound, how does the IC50 read?
A: ≤ 1000 nM

Q: `NC(=O)c1nnc(Nc2nc3ccc(C(F)(F)F)cc3o2)o1` [Example 102, 5-((6-(Trifluoromethyl)benzo[d]oxazol-2-yl)amino)-1,3,4-oxadiazole-2-carboxamide] was tested. Which IC50 did it give?
A: ≤ 100000 nM

Q: `CN1CCN(c2cnc(Nc3nc4ccc(C(F)(F)F)cc4o3)s2)CC1` [Example 35, N-(5-(4-Methylpiperazin-1-yl)thiazol-2-yl)-6-(trifluoromethyl)benzo[d]oxazol-2-amine] was tested. Which IC50 did it give?
A: ≤ 1000 nM

Q: `C#Cc1nnc(Nc2nc3ccc(Cl)cc3o2)o1` [Example 194, 6-Chloro-N-(5-ethynyl-1,3,4-oxadiazol-2-yl)benzo[d]oxazol-2-amine] was tested. Which IC50 did it give?
A: ≤ 100 nM

Q: For `CN(C)Cc1nnc(Nc2nc3cc(C(F)(F)F)ccc3o2)[nH]1` [Example 136, N-(5-((Dimethylamino)methyl)-4H-1,2,4-triazol-3-yl)-5-(trifluoromethyl)benzo[d]oxazol-2-amine], which IC50 is on record?
A: ≤ 1000 nM

Q: With `N#CC1CCN(Cc2nnc(Nc3nc4cc(C(F)(F)F)ccc4o3)o2)C1` (stereo not drawn) [Example 76, 1-((5-((5-(triFluoromethyl)benzo[d]oxazol-2-yl)amino)-1,3,4-oxadiazol-2-yl)methyl)pyrrolidine-3-carbonitrile] as the compound, how does the IC50 read?
A: ≤ 10000 nM

Q: For `CC(C)c1nnc(Nc2nc3cc(C(F)(F)F)ccc3o2)o1` [Example 108, N-(5-Isopropyl-1,3,4-oxadiazol-2-yl)-5-(trifluoromethyl)benzo[d]oxazol-2-amine], which IC50 is on record?
A: ≤ 1000 nM

Q: With `O=C(Nc1ccccc1)c1csc(Nc2nc3cc(C(F)(F)F)ccc3o2)n1` [Example 5, N-Phenyl-2-((5-(trifluoromethyl)benzo[d]oxazol-2-yl)amino)thiazole-4-carboxamide] as the compound, how does the IC50 read?
A: ≤ 1000 nM

Q: With `O=[N+]([O-])c1ccc2nc(Nc3nnco3)oc2c1` [Example 186, 6-Nitro-N-(1,3,4-oxadiazol-2-yl)benzo[d]ox-azol-2-amine] as the compound, how does the IC50 read?
A: ≤ 10000 nM

Q: With `FC(F)(F)c1ccc2oc(Nc3ncns3)nc2c1` [Example 23, N-(1,2,4-Thiadiazol-5-yl)-5-(trifluoromethyl)benzo[d]oxazol-2-amine] as the compound, how does the IC50 read?
A: ≤ 1000 nM

Q: For `Fc1ccc2oc(Nc3nnco3)nc2c1` [Example 66, 5-Fluoro-N-(1,3,4-oxadiazol-2-yl)benzo[d]oxazol-2-amine], which IC50 is on record?
A: ≤ 1000 nM

Q: For `CCOC(=O)c1nnc(Nc2nc3cc(C(F)(F)F)ccc3n2C)o1` [Example 55, Ethyl 5-((1-methyl-5-(trifluoromethyl)-1H-benzo[d]imidazol-2-yl)amino)-1,3,4-oxadiazole-2-carboxylate], which IC50 is on record?
A: ≤ 1000 nM

Q: How did the IC50 turn out when `Cc1cc2oc(Nc3nnco3)nc2cc1F` [Example 197, 5-Fluoro-6-methyl-N-(1,3,4-oxadiazol-2-yl)benzo[d]oxazol-2-amine] was run?
A: ≤ 100 nM

Q: `FC(F)(F)c1ccc2oc(Nc3nc(Cl)cs3)nc2c1` [Example 100, N-(4-Chlorothiazol-2-yl)-5-(trifluoromethyl)benzo[d]oxazol-2-amine] was tested. Which IC50 did it give?
A: ≤ 1000 nM

Q: Which IC50 does the source give for `FC(F)(F)c1ccc2oc(Nc3nc4ccncc4o3)nc2c1` [Example 59, N-(5-(triFluoromethyl)benzo[d]oxazol-2-yl)oxazolo[5,4-c]pyridin-2-amine] here?
A: ≤ 1000 nM

Q: `FC(F)(F)c1ccc2oc(Nc3nnc([C@@H]4CCCN4)o3)nc2c1` [Example 146, (S)-N-(5-(pyrrolidin-2-yl)-1,3,4-oxadiazol-2-yl)-5-(trifluoromethyl)benzo[d]oxazol-2-amine hydrochloride] was tested. Which IC50 did it give?
A: ≤ 1000 nM

Q: With `Fc1ccc2nc(Nc3nnco3)oc2c1` [Example 63, 6-Fluoro-N-(1,3,4-oxadiazol-2-yl)benzo[d]oxazol-2-amine] as the compound, how does the IC50 read?
A: ≤ 1000 nM

Q: `Cc1nnc(Nc2nc3ccc(C(F)(F)F)cc3[nH]2)o1` [Example 83, 5-Methyl-N-(6-(trifluoromethyl)-1H-benzo[d]imidazol-2-yl)-1,3,4-oxadiazol-2-amine] was tested. Which IC50 did it give?
A: ≤ 1000 nM

Q: Which IC50 does the source give for `O=C(O)c1csc(Nc2nc3cc(Cl)ccc3o2)n1` [Example 96, 2-((5-Chlorobenzo[d]oxazol-2-yl)amino)thiazole-4-carboxylic acid] here?
A: ≤ 10000 nM

Q: `Clc1ccc2nc(Nc3nnc(C4CCOC4)o3)oc2c1` (stereo not drawn) [Example 199, 6-Chloro-N-(5-(tetrahydrofuran-3-yl)-1,3,4-oxadiazol-2-yl)benzo[d]oxa-zol-2-amine] was tested. Which IC50 did it give?
A: ≤ 1000 nM

Q: Which IC50 does the source give for `Cc1csc(Nc2nc3cc(C(F)(F)F)ccc3o2)n1` [Example 7, N-(4-Methylthiazol-2-yl)-5-(trifluoromethyl)benzo[d]oxazol-2-amine] here?
A: ≤ 1000 nM

Q: With `O=C(c1csc(Nc2nc3cc(C(F)(F)F)ccc3o2)n1)N1CCNCC1` [Example 95, Piperazin-1-yl(2-((5-(trifluoromethyl)benzo[d]oxazol-2-yl)amino)thiazol-4-yl)methanone hydrochloride] as the compound, how does the IC50 read?
A: ≤ 1000 nM

Q: With `Fc1cc2nc(Nc3nnco3)oc2cc1Cl` [Example 47, 6-Chloro-5-fluoro-N-(1,3,4-oxadiazol-2-yl)benzo[d]oxazol-2-amine] as the compound, how does the IC50 read?
A: ≤ 100 nM

Q: How did the IC50 turn out when `Cc1nnc(Nc2nc3c(C)cccc3n2C)o1` [Example 90, N-(1,4-Dimethyl-1H-benzo[d]imidazol-2-yl)-5-methyl-1,3,4-oxadiazol-2-amine] was run?
A: ≤ 10000 nM

Q: Which IC50 does the source give for `Clc1cccc2nc(Nc3nnco3)oc12` [Example 57, 7-Chloro-N-(1,3,4-oxadiazol-2-yl)benzo[d]oxazol-2-amine] here?
A: ≤ 1000 nM

Q: `NC(=O)c1csc(Nc2nc3cc(Cl)ccc3o2)n1` [Example 99, 2-((5-Chlorobenzo[d]oxazol-2-yl)amino)thiazole-4-carboxamide] was tested. Which IC50 did it give?
A: ≤ 1000 nM

Q: For `FC(F)(F)c1ccc2oc(Nc3nc4ccccc4o3)nc2c1` [Example 158, N-(Benzo[d]oxazol-2-yl)-5-(trifluoromethyl) benzo[d]oxazol-2-amine], which IC50 is on record?
A: ≤ 100 nM

Q: For `Cc1nnc(Nc2nc3c(Cl)cccc3o2)o1` [Example 119, 4-Chloro-N-(5-methyl-1,3,4-oxadiazol-2-yl)benzo[d]oxazol-2-amine], which IC50 is on record?
A: ≤ 1000 nM

Q: For `Cc1nnc(Nc2nc3cc(C(F)(F)F)c(Cl)cc3n2C)[nH]1` [Example 144, 6-Chloro-1-methyl-N-(5-methyl-4H-1,2,4-triazol-3-yl)-5-(trifluoromethyl)-1H-benzo[d]imidazol-2-amine], which IC50 is on record?
A: ≤ 100000 nM

Q: Which IC50 does the source give for `CCNC(=O)c1csc(Nc2nc3cc(C(F)(F)F)ccc3o2)n1` [Example 3, N-Ethyl-2-((5-(trifluoromethyl)benzo[d]oxazol-2-yl)amino)thiazole-4-carboxamide] here?
A: ≤ 1000 nM

— patent publication US20190194179A1, “ANTIBIOTIC COMPOUNDS” (DISCUVA LTD., priority 2016, published 2019)
